Data from article PMC9963876, “Multiple Effects of Echinochrome A on Selected Ion Channels Implicated in Skin Physiology” (Marine Drugs, 2023).

Key:
TRPV3 = biological target: T1, TRPV3 (Homo sapiens, UniProt Q8NET8); test: whole-cell patch clamp, TRPV3-overexpressing HEK […], 2-APB-activated current; format: cell-based
T1 sequence (Q8NET8 1-790): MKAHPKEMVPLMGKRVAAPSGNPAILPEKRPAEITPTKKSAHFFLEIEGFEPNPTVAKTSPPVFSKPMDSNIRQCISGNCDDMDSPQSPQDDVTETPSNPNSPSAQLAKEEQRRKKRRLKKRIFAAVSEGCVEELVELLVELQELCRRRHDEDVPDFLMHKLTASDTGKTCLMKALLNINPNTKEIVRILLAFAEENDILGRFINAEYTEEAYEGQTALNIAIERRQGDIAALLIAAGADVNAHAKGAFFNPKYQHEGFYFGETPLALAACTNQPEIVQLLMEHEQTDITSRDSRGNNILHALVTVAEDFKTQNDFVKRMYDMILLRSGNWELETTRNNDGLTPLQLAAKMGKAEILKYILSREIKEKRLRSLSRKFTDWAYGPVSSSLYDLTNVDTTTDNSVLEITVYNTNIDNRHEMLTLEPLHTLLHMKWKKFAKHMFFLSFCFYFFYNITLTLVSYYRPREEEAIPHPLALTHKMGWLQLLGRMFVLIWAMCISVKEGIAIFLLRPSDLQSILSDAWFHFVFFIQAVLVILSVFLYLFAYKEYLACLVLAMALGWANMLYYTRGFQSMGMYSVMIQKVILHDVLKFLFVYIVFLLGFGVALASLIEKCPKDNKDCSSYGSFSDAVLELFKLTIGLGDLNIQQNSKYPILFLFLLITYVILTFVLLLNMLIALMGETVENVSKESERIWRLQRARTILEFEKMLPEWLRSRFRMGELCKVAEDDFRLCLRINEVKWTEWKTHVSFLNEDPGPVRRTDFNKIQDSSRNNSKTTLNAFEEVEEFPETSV

Orai1 = biological target: T2, Orai1 (Homo sapiens, UniProt Q96D31); test: whole-cell patch clamp, Orai1/STIM1 co-expressing HEK […]; format: cell-based
T2 construct: with STIM1
T2 sequence (Q96D31 whole entry): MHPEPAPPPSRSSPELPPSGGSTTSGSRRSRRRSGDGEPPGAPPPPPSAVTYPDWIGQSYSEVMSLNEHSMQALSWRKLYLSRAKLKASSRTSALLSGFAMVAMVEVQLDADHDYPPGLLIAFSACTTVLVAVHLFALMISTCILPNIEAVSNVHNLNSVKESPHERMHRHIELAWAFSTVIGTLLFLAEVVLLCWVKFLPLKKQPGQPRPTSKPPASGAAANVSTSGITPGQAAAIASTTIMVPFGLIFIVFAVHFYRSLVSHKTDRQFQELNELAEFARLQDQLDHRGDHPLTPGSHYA
T2 sequence (Q13586 23-685 partner): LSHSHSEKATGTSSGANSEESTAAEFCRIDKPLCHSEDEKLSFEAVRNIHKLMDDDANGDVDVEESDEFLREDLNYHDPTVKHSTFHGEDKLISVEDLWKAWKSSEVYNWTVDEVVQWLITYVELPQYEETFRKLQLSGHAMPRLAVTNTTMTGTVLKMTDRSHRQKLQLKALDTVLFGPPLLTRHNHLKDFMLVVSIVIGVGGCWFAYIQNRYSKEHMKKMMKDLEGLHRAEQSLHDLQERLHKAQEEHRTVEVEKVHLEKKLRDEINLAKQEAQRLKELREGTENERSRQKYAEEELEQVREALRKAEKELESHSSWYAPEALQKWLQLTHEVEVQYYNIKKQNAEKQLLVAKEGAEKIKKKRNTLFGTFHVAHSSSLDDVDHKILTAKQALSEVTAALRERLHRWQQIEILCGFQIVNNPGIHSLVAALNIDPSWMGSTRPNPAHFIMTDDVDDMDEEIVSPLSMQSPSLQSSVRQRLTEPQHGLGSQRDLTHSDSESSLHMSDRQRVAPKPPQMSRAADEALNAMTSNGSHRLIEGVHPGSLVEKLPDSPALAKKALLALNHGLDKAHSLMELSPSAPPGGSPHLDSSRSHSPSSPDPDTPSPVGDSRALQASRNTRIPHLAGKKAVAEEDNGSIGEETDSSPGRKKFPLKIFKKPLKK

CCc1c(O)c(O)c2c(c1O)C(=O)C(O)=C(O)C2=O [Ech A, 6-ethyl-2,3,5,7,8-pentahydroxy-1,4-naphthoquinone]
IC50 (TRPV3): 2.11 ± 1.05 µM | IC50 (Orai1): 2.41 ± 1.55 µM
